Legend:
Experiment in all cases: relative viability (nuclei count vs DMSO), 5 days (fraction); higher = more cells survive
Tipifarnib + Tozasertib = compound: Cn1cncc1[C@@](N)(c1ccc(Cl)cc1)c1ccc2c(c1)c(-c1cccc(Cl)c1)cc(=O)n2C [Tipifarnib] + Cc1cc(Nc2cc(N3CCN(C)CC3)nc(Sc3ccc(NC(=O)C4CC4)cc3)n2)n[nH]1 [Tozasertib] (partner 0.1 µM)
Method in brief: (§1)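 Values are medians from duplicate plates. Each reflects relative viability, defined as the nuclei count of treated wells over that of vehicle wells. Lung cancer cell lines in 1536-well plates were pin-tool dosed one day after seeding with one drug alone or with a fixed anchor-drug dose plus five library-drug doses (not always all listed) in √10 steps, then fixed, stained and imaged at 4× after 5 days.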

Tipifarnib + AZD7762 = compound: Cn1cncc1[C@@](N)(c1ccc(Cl)cc1)c1ccc2c(c1)c(-c1cccc(Cl)c1)cc(=O)n2C [Tipifarnib] + NC(=O)Nc1cc(-c2cccc(F)c2)sc1C(=O)N[C@H]1CCCNC1 [AZD7762] (partner 0.2 µM)
Method in brief: as §1

Tipifarnib + Trametinib = compound: Cn1cncc1[C@@](N)(c1ccc(Cl)cc1)c1ccc2c(c1)c(-c1cccc(Cl)c1)cc(=O)n2C [Tipifarnib] + CC(=O)Nc1cccc(-n2c(=O)n(C3CC3)c(=O)c3c(Nc4ccc(I)cc4F)n(C)c(=O)c(C)c32)c1 [Trametinib] (partner 0.02 µM)
Method in brief: as §1

Tipifarnib = compound: Cn1cncc1[C@@](N)(c1ccc(Cl)cc1)c1ccc2c(c1)c(-c1cccc(Cl)c1)cc(=O)n2C [Tipifarnib]
Method in brief: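 Hoechst staining, done together with fixation and permeabilisation, marked nuclei for 4× imaging and MetaXpress counting. This followed 5 days without medium change after lung cancer cell lines, kept overnight at 37 °C in 1536-well plates, were pinned with five library-drug doses (not always all listed) spaced by √10 on vehicle-anchored plates. Viability is the ratio of treated-well to vehicle-well nuclei, expressed as a median across plates. Plates passed only at control CV below 25% with at least one doubling.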

Cell Line	relative viability (Tipifarnib + Tozasertib; first compound 0.01 µM)	relative viability (Tipifarnib + Tozasertib; first compound 0.03162 µM)	relative viability (Tipifarnib + Tozasertib; first compound 0.1 µM)	relative viability (Tipifarnib + Tozasertib; first compound 0.3162 µM)	relative viability (Tipifarnib + Tozasertib; first compound 1 µM)	relative viability (Tipifarnib + AZD7762; first compound 0.01 µM)	relative viability (Tipifarnib + AZD7762; first compound 0.03162 µM)	relative viability (Tipifarnib + AZD7762; first compound 0.1 µM)	relative viability (Tipifarnib + AZD7762; first compound 0.3162 µM)	relative viability (Tipifarnib + AZD7762; first compound 1 µM)	relative viability (Tipifarnib + Trametinib; first compound 0.01 µM)	relative viability (Tipifarnib + Trametinib; first compound 0.03162 µM)	relative viability (Tipifarnib + Trametinib; first compound 0.1 µM)	relative viability (Tipifarnib + Trametinib; first compound 0.3162 µM)	relative viability (Tipifarnib + Trametinib; first compound 1 µM)	relative viability (Tipifarnib; 0.01 µM)	relative viability (Tipifarnib; 0.03162 µM)	relative viability (Tipifarnib; 0.1 µM)	relative viability (Tipifarnib; 0.3162 µM)	relative viability (Tipifarnib; 1 µM)
LK-2	0.158	0.173	0.189	0.157	0.162	0.769	0.357	0.256	0.17	0.104	0.613	0.971	0.766	0.559	0.597	1.03	0.857	0.809	0.615	0.607
NCI-H1993	0.444	0.481	0.553	0.521	0.481	0.765	0.591	0.571	0.437	0.484	0.575	0.476	0.485	0.594	0.61	0.966	0.754	0.736	0.593	0.69
NCI-H838	0.254	0.286	0.248	0.214	0.252	1.01	0.965	0.905	0.836	0.851	0.47	0.483	0.434	0.431	0.374	0.9	0.892	0.741	0.722	0.621
NCI-H1437	0.398	0.358	0.381	0.319	0.353	1.12	1.14	1.1	1.06	1.11	0.591	0.596	0.619	0.406	0.446	1.01	1.01	1.02	0.917	0.634
NCI-H2170	0.839	0.718	0.456	0.501	0.47	0.98	0.885	0.701	0.644	0.506	1.04	0.876	0.793	0.716	0.655	1.04	1.03	0.992	0.789	0.8
NCI-H1648	0.368	0.479	0.285	0.483	0.352	0.625	0.535	0.681	0.551	0.341	0.481	0.414	0.523	0.466	0.481	1.03	0.761	0.896	0.651	0.58
LCLC-103H	0.413	0.375	0.364	0.309	0.31	0.784	0.76	0.735	0.713	0.679	0.649	0.674	0.646	0.642	0.667	1.06	1.04	0.927	0.817	0.756
NCI-H441	0.671	0.554	0.528	0.356	0.439	1.21	0.904	0.938	0.723	0.598	0.429	0.319	0.372	0.228	0.225	1.33	0.751	0.718	0.568	0.393
BEN	0.576	0.398	0.491	0.418	0.504	0.738	0.659	0.629	0.663	0.528	0.95	0.87	0.873	0.856	0.761	1.2	1.03	0.926	0.853	0.752
LC-2-ad	0.509	0.37	0.415	0.407	0.393	0.813	0.68	0.561	0.474	0.359	0.938	0.661	0.669	0.561	0.532	0.925	0.783	0.636	0.614	0.403
RERF-LC-KJ	0.623	0.435	0.454	0.325	0.334	1.02	1.22	0.975	0.656	0.243	0.828	0.961	0.776	0.652	0.646	1.1	0.948	0.899	0.697	0.665
SW 900	0.335	0.261	0.289	0.31	0.273	0.464	0.372	0.331	0.292	0.259	0.517	0.465	0.489	0.478	0.332	0.697	0.282	0.486	0.338	0.272
NCI-H1915	0.358	0.326	0.293	0.26	0.287	0.643	0.583	0.398	0.332	0.319	0.298	0.269	0.214	0.201	0.195	0.772	0.763	0.606	0.494	0.42
NCI-H596	1.05	0.687	0.713	0.722	0.589	1.1	1.09	1.08	0.822	0.776	0.759	1	0.593	0.53	0.527	0.982	0.964	0.918	0.724	0.587
NCI-H2126	0.858	0.697	0.673	0.603	0.501	1.01	1	0.991	0.962	0.716	0.585	0.496	0.528	0.515	0.482	1.03	0.992	0.954	0.933	0.566
LXF-289	0.224	0.192	0.21	0.142	0.152	1.08	1.12	1.08	0.941	0.347	0.71	0.684	0.695	0.557	0.64	0.985	0.943	1	0.894	0.771

Cell Line	relative viability (Tipifarnib + Tozasertib; first compound 0.01 µM)	relative viability (Tipifarnib + Tozasertib; first compound 0.03162 µM)	relative viability (Tipifarnib + Tozasertib; first compound 0.1 µM)	relative viability (Tipifarnib + Tozasertib; first compound 0.3162 µM)	relative viability (Tipifarnib + Tozasertib; first compound 1 µM)	relative viability (Tipifarnib + AZD7762; first compound 0.01 µM)	relative viability (Tipifarnib + AZD7762; first compound 0.03162 µM)	relative viability (Tipifarnib + AZD7762; first compound 0.1 µM)	relative viability (Tipifarnib + AZD7762; first compound 0.3162 µM)	relative viability (Tipifarnib + AZD7762; first compound 1 µM)	relative viability (Tipifarnib + Trametinib; first compound 0.01 µM)	relative viability (Tipifarnib + Trametinib; first compound 0.03162 µM)	relative viability (Tipifarnib + Trametinib; first compound 0.1 µM)	relative viability (Tipifarnib + Trametinib; first compound 0.3162 µM)	relative viability (Tipifarnib + Trametinib; first compound 1 µM)	relative viability (Tipifarnib; 0.01 µM)	relative viability (Tipifarnib; 0.03162 µM)	relative viability (Tipifarnib; 0.1 µM)	relative viability (Tipifarnib; 0.3162 µM)	relative viability (Tipifarnib; 1 µM)
HCC-44	0.935	0.665	0.572	0.623	0.578	0.943	0.979	0.959	0.899	0.837	0.992	0.942	0.908	0.781	0.891	0.967	0.871	0.802	0.729	0.472
PC-14	0.397	0.496	0.172	0.165	0.155	0.322	0.228	0.227	0.136	0.16	0.579	0.357	0.447	0.2	0.334	0.9	0.695	0.481	0.32	0.263
HOP-62	0.297	0.292	0.312	0.2	0.244	0.573	0.169	0.196	0.152	0.261	0.375	0.297	0.258	0.261	0.282	0.833	0.57	0.482	0.333	0.454
NCI-H358	0.117	0.123	0.104	0.104	0.11	0.563	0.511	0.575	0.382	0.378	0.143	0.102	0.133	0.107	0.135	1.04	0.918	0.834	0.729	0.416
NCI-H1666	0.593	0.507	0.526	0.447	0.517	0.892	0.807	0.794	0.661	0.554	0.832	0.798	0.846	0.811	0.679	0.99	0.858	0.858	0.8	0.795
NCI-H1355	0.474	0.408	0.321	0.349	0.329	0.833	0.707	0.517	0.473	0.478	0.486	0.387	0.357	0.352	0.339	1.04	0.852	0.68	0.675	0.607
HCC-827	0.41	0.409	0.335	0.26	0.334	0.236	0.287	0.206	0.207	0.178	0.529	0.598	0.481	0.479	0.504	1.06	0.975	0.787	0.65	0.584
HARA	0.123	0.0922	0.102	0.0898	0.0758	0.239	0.426	0.283	0.297	0.166	0.784	0.77	0.635	0.588	0.508	1.14	1.03	1.04	0.826	0.348
HCC-366	0.091	0.0658	0.0515	0.0779	0.0476	0.281	0.304	0.171	0.0878	0.0371	0.415	0.371	0.197	0.147	0.102	1.06	0.939	0.781	0.541	0.0913
NCI-H322M	0.55	0.492	0.511	0.417	0.46	0.561	0.591	0.553	0.474	0.442	0.492	0.565	0.519	0.542	0.548	0.965	1.06	0.977	0.805	0.786
NCI-H2347	0.516	0.402	0.431	0.382	0.461	0.834	0.721	0.665	0.505	0.61	0.308	0.283	0.269	0.261	0.293	0.831	0.89	0.735	0.676	0.691
NCI-H1975	0.853	0.695	0.682	0.386	0.374	0.89	0.9	0.688	0.623	0.616	0.316	0.272	0.337	0.252	0.288	0.914	1.11	0.979	0.705	0.59
NCI-H522	0.517	0.564	0.525	0.542	0.566	0.925	1.03	0.875	0.754	0.662	0.802	0.834	0.739	0.68	0.696	0.917	1.06	1.1	0.898	0.748
A-427	0.164	0.205	0.227	0.171	0.211	0.837	0.79	0.553	0.599	0.601	0.872	0.758	0.633	0.654	0.549	1.12	0.981	0.987	0.826	0.609
LCLC-97TM1	0.154	0.18	0.186	0.148	0.215	0.179	0.225	0.216	0.17	0.0822	0.202	0.209	0.171	0.17	0.157	0.98	0.707	0.878	0.703	0.19
